The values that follow come from article PMC6934184, “Selective DNA-PKcs inhibition extends the therapeutic index of localized radiotherapy and chemotherapy” (The Journal of Clinical Investigation, 2019).

The assay deals with T1, PDGFRA (PDGFR alpha) (Homo sapiens, UniProt P16234).
T1 construct: purchased Thermo Fisher Scientific (Life Technologies) SelectScreen
In words: SelectScreen Z'LYTE. In kind it is biochemical. An outline of the steps:
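NU5455 was profiled across the SelectScreen Broad panel of kinase activity and binding assays. Z'LYTE reactions such as CSF1R ran at apparent Km ATP, while the Adapta CAMK1 assay used ATP listed as 10. Values are given as percent.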

T1 sequence (P16234 24-1089): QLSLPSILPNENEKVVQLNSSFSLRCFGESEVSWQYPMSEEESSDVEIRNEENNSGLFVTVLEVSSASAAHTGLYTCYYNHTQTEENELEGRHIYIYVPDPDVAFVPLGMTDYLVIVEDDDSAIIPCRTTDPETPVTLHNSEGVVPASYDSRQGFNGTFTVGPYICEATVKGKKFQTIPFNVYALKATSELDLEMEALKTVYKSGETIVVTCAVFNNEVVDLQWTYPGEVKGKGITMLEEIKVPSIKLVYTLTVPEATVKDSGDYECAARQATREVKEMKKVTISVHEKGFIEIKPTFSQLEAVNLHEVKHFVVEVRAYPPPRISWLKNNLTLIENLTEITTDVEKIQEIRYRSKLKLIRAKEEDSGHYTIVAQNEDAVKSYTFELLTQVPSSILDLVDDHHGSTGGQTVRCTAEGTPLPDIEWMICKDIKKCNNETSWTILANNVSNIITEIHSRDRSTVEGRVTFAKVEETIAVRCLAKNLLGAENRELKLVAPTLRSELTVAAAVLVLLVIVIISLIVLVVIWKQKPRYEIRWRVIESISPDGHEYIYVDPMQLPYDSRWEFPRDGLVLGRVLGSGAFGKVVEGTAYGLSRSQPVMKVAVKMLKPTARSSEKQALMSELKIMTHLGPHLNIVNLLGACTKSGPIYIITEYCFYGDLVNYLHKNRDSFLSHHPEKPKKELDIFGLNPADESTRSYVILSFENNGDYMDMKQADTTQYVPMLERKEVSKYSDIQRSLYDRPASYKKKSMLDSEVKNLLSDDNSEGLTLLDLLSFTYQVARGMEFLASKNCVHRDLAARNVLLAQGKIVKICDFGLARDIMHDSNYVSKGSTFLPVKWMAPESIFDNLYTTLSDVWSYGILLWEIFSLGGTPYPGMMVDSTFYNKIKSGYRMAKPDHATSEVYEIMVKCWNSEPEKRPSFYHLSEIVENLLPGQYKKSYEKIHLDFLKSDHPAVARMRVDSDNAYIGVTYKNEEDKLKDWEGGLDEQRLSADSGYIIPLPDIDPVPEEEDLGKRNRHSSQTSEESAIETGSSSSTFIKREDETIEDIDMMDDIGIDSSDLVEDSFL

In general, inhibition refers to the change of the read-out against control, counted positive when it falls. In the case of `CN(C(=O)CN1CCOCC1)c1ccc2sc3c(-c4cccc5c(=O)cc(N6CC7CCC(C6)O7)oc45)cccc3c2c1` [NU5455], the inhibition at 1 µM was -6.8%.
